Measured values published in patent US20070202547A1, “Methods For Detecting Substances Which Bind To The Amyloid Precursor Protein Or Beta Amyloid Fragments, And Binding Compounds” (priority 2004, published 2007).

Key:
Assay type in all cases: biochemical
[1] = molecular target: BACE1 (Homo sapiens, UniProt P56817); experiment: BACE1 cleavage of full-length APP or beta-site P5/P5' peptide (FIG. 3); conditions: relative to DMSO-treated
Text: (§1) FIG. 3(A) depicts inhibition by Statine-Val, which is a known inhibitor of BACE cleavage of both APP and APP fragments, including the beta-site P5/P5′ peptide fragment. […] depicts inhibition by Example 4. The graphs depict inhibition of cleavage of a full-length APP substrate (∘) or the beta-site P5/P5 fragment. (□). Enzymatic activity is shown relative to DMSO-treated BACE cleavage.

[2] = system: BACE1; experiment: as above; conditions: relative to DMSO-treated
Text: as §1

[3] = molecular target: T1, BACE2 (Homo sapiens, UniProt P05067, K670N/M671F/D672E/A673V); experiment: BACE2 cleavage of APP at the beta-secretase cleavage site (ALPHA); conditions: result in words
T1 construct: IC50, BACE2 cleavage of APP at the beta-secretase cleavage site; other: MBP-biotinylated APP fusion protein with NFEV s; activity against BACE2 cleavage of APP at the beta-secretase position; other: result in words; biotin label
Method: (§2) The effect of Examples 1-4 on cleavage of APP at the beta-secretase cleavage site was assayed as follows:
(§3) • 25 μL 0.2 M Sodium Acetate, pH 4.5 • 10 μL 10× protease inhibitor cocktail (Roche, cat # 1836153) • 10 μL Bovine Serum Albumin (1 mg/mL solution) • 4 μL 5% CHAPS • 1 μL EDTA (150 mM, pH 4.5) • 2 μL DF • 4 μL MBP(Maltose binding protein)—biotininylated APP fusion protein containing the NFEV BACE cleavage site (bacterially expressed, 10 μM solution) • 1 μL DMSO or compound dissolved in DMSO • 2 μL BACE2 (CHO cell expressed protein, 250 nM) • 41 μL distilled water The reactions were incubated at 37° C. for 30 minutes, and were then quenched with 4 μL 1 M TrisHCl, pH 8.0. Detection of MBP Biotin APP(NF) Cleavage Product using ALPHA ALPHA Assay Mix was Prepared as Follows: • 20 μL Streptavidin Donor Beads (from AlphaScreen General IgG (Protein A) Detection Kit Perkin Elmer Life Sciences); 10,000 pts (Part Number 6760617M) • 20 μL Protein A Acceptor beads (from AlphaScreen General IgG (Protein A) Detection Kit Perkin Elmer Life Sciences); 10,000 pts (Part Number 6760617M) • 3.7 μL Affinity purified anti-NF antibody (203 μg/mL) (described in WO 02/094985) • 4.5 mL 0.1% BSA in PBS • 4 μL of quenched reaction mixture was combined with 46 μL of the assay mix. The reactions were incubated at room temperature overnight and read using the ALPHAQuest plate reader.

[4] = molecular target: T2, BACE2 (Homo sapiens, UniProt P05067, A673V/D672E/K670N/M671F); experiment: as above; conditions: MBP-biotinylated APP fusion protein with NFEV site, pH 4.5, 30 minutes
T2 construct: IC50, BACE2 cleavage of APP at the beta-secretase cleavage site; other: MBP-biotinylated APP fusion protein with NFEV s; activity against BACE2 cleavage of APP at the beta-secretase position; other: result in words; biotin label
Method: as §2, §3

[5] = system: BACE2; experiment: BACE2 cleavage of EV amyloid / Aβ (mass spectrometric analysis); conditions: 100 μM, result in words
Method: The effect of inhibition of BACE 2 cleavage of EV amyloid was assayed using a protocol described in Shi et al, 2003, J. Biol. Chem., 278:21286-21294. The results of assaying Examples 1-4 at 100 μM are shown below: […]

[6] = molecular target: gamma-secretase (Homo sapiens, UniProt P05067); experiment: Gamma-secretase cleavage of CTFβ substrate (HeLa cell membrane extract); conditions: Aβ40 detection with 6E-10/G2-10, read-out: CTFβ CLEAVAGE AT POSITION 40
Method: Accordingly, Examples 1-4 were tested for their ability to inhibit gamma-secretase cleavage of both a full-length CTFβ substrate, as described in Li, 2000, Proc. Natl Acad Sci. 97:6138-6143. The assays were carried out as follows:
Inhibition of CTFβ Cleavage
• 10 μL 10× protease inhibitor cocktail (Roche, cat # 1836153) • 25 μL 4× Buffer (50 mM PIPES pH7.0, 150 mM KCl, 5 mM MgCl2, 5 mM CaCl2) • 2 μL 10% CHAPSO • 5 μL HeLa cell membrane extract characterized for gamma-secretase activity • 7 μL 25 μM bacterially expressed CTFβ • 51 μL water • 1 μL compound in DMSO The reactions were incubated at 37° C. for 150 min and quenched with 25 μL 5× RIPA buffer (750mM NaCl, 5% NP-40, 2.5% DOC, 0.5% SDS, 250 mM Tris H8.0). Detection:
Gamma-secretase cleavage of the CTFβ substrate was assessed by incubating 50 μL of the reaction with 25 μL of 4 μg/mL biotinylated antibody 6E-10 which is specific for the N-terminal region of Aβ, and 25 μL of 1.5 μg/mL of a ruthinylated antibody G2-10, which is specific to the C-terminal region of Aβ40. The C-terminal region is present only after gamma secretase cleavage of Aβ. The antibodies were allowed to bind overnight at room temperature. The following day, 25 μL of 80 μg/mL streptavidin-coated Dynabeads (M-280) were added to each reaction, allowed to bind for 30 minutes, and quenched with 275 μL IGEN assay buffer. Quantification of the gamma-secretase cleavage products was carried out using an Origen Analyzer.

Sequence of BACE1 (Homo sapiens, UniProt P56817) (P56817 46-501): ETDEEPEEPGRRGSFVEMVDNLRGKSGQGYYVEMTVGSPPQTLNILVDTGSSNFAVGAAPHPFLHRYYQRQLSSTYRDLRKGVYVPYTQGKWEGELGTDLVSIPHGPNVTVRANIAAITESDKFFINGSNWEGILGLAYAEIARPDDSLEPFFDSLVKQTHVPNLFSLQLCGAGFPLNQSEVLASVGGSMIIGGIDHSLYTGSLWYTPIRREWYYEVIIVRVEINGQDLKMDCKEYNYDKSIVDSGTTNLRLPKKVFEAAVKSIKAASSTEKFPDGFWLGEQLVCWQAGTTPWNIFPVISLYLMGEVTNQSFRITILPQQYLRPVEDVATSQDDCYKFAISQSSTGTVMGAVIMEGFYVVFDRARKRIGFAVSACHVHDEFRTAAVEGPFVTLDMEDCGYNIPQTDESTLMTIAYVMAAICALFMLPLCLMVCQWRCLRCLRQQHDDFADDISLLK

Structure (SMILES) | inhibition of BACE1 cleavage of beta-site P5/P5' peptide fragment [1] | inhibition of BACE1 cleavage of full-length APP substrate [2] | activity against BACE2 cleavage of APP at the beta-secretase position [3] | IC50 [4] [µM] | effect on BACE2 cleavage at all Aβ sites ([5]; FIG. 1) | effect on BACE2 cleavage at position 34 [5] | effect on BACE2 cleavage at positions 19 and 20 [5] | IC50 [6] [µM]
Oc1cc2c(cc1CCCOc1ccc(-c3nnn[nH]3)cc1Cl)OC(CCc1ccccc1)C2 (stereo not drawn) [Example 4, 6-{3-[2-chloro-4-(1H-tetrazol-5-yl)phenoxy]propyl}-2-(2-phenylethyl)-2,3-dihydro-1benzofuran-5-oI] | inhibits cleavage of APP only | inhibits cleavage of APP only | capable of inhibiting BACE2 cleavage of APP at the beta-secretase position with similar effectiveness to their inhibition of BACE1 cleavage at the same site | 20 | suppressed cleavage at all Aβ sites | blocked cleavage at position 34 | enhanced cleavage of Aβ at positions 19 and 20 | –
O=C(O)COc1ccc2c(c1)CC(CCc1ccccc1)O2 (stereo not drawn) [Example 3] | – | – | – | ~100 | – | – | – | 49
